# Results as given in patent US8344135B2, “Heterocyclic compound and use thereof” (Takeda Pharmaceutical Company Limited, priority 2007, dated 2013).
# Legend:
# [1] = system: MEK1/2 phosphorylation (Ser217/221) in HT-29 cells; assay: Colon cancer cell HT-29 intracellular MEK phosphorylation inhibitory action in vitro; format: cell-based; details: Homo sapiens, 2 hr treatment, Western blot of phosphorylated MEK1/2
# Method: Colon Cancer Cell HT-29 Intracellular MEK Phosphorylation Inhibitory Action in vitro
# A cell suspension (500 μL) of human colon cancer cell HT-29 was plated in a 48-well plate (100,000 cells/well), and the cells were cultured overnight at 37° C. in the presence of 5% CO2, treated with a test compound (250 μL/well) diluted in 3-fold dilution series and cultured for two more hours. After 2 hr, the culture medium containing the test compound was removed, and the cells were lysed with SDS sample buffer (100 μL/well) and heated at 95° C. for 5 min. Thereafter, the cells were applied to SDS-PAGE, and the protein was transferred onto Sequi-Blot™ PVDF Membrane (Bio-Rad) by the Western blot method. The cells were blocked with a block-Ace solution (Snow Brand Milk Products Co., Ltd) dissolved in phosphate buffer to 5% W/V, and reacted overnight with anti-phosphorylated MEK1/2 (Ser217/221) (Cell signaling #9121) diluted 1000-fold with phosphate buffer containing 0.4% block-Ace. The membrane was washed with phosphate buffer containing 0.1% Tween 20 (Wako Pure Chemical Industries, Ltd.), and reacted at room temperature for 1 hr with HRP labeled rabbit IgG polyclonal antibody (Cell signaling #7074) diluted 1000-fold with phosphate buffer containing 0.4% block-Ace. The membrane was washed in the same manner as above, chemical luminescence of a phosphorylated MEK1/2 protein labeled with the antibody, which was caused by ECL-plus Detection Reagent (Amersham bioscience), was detected by Luminescent Image Analyzer LAS-1000 (FUJIFILM Corporation).
# BRAF (V600E) = molecular target: T1, BRAF (V600E) (Homo sapiens, UniProt P15056, V600E); assay: Determination of BRAF (V600E) kinase inhibitory activity; format: biochemical; details: test compound 1.0 μM; substrate GST-MEK1 (K96R); [γ-32P]ATP; read-out: Inhibitory rate (%) at 1.0 μM
# T1 construct: area encoding the BRAF kinase domain region, so that the protein contains an N-terminal Flag; made in house; host or cells: SF-21 insect cells infected with recombinant baculovirus BAC-V600E
# T1 sequence (P15056 457-717 V600E limits assumed): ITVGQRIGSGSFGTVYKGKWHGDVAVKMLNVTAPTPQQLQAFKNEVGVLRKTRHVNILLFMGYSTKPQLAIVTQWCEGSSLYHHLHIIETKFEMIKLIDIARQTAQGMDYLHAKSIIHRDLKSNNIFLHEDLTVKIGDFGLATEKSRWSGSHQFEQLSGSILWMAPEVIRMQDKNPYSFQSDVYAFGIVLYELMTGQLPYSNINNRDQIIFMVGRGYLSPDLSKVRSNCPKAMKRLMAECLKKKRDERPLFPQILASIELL
# Method: Determination of BRAF (V600E) Kinase Inhibitory Activity
# A test compound (2.5 μL) dissolved in dimethyl sulfoxide (DMSO) was added to 37.5 μL of a reaction solution (25 mM HEPES (pH 7.5), 10 mM magnesium acetate, 1 mM dithiothreitol) containing BRAF (V600E) enzyme (30 ng) and recombinant type protein GST-MEK1 (K96R) 250 ng, and the mixture was incubated at room temperature for 10 min. ATP solution (10 μL, 2.5 μM ATP, 0.1 μCi [γ-^32P]ATP) was added to the obtained mixture, and the mixture was reacted at room temperature for 20 min. The reaction was quenched by adding 50 μL of ice-cooled 20% trichloroacetic acid (Wako Pure Chemical Industries, Ltd.). The reaction solution was allowed to stand at 4° C. for 30 min, and the acid-precipitable fraction was transferred to GF/C filter plate (Millipore Corporation) using cell harvester (PerkinElmer). The plate was dried at 45° C. for 60 min, and 40 μL of MicroScinti 0 (PerkinElmer) was added thereto. The radioactivity was measured using TopCount (PerkinElmer). The kinase inhibitory rate (%) of the test compound was calculated by the following formula: Inhibitory rate (%)=(1−(count of test compound−blank)÷(control−blank))×100
# The count of the solution reacted without addition of the compound was used as a “control”, and the count of the solution without the compound and enzyme was used as a “blank”.
SMILES,IC50 [1] [nM],inhibition at 1 µM (BRAF (V600E)) [%]
"Cc1ccc(NC(=O)c2cccc(C(C)(C)C#N)c2)cc1Oc1ccc2nc(NC(=O)CO)sc2n1 [Example C13, 3-(1-cyano-1-methylethyl)-N-(3-{[2-(glycoloylamino)[1,3]thiazolo[5,4-b]pyridin-5-yl]oxy}-4-methylphenyl)benzamide]",< 500,–
"COc1ccc(NC(=O)c2cccc(C3(C#N)CC3)c2)cc1Oc1ccc2nc(NC(=O)CN3CCN(C)CC3)sc2n1 [Example C2, 3-(1-cyanocyclopropyl)-N-{4-methoxy-3-[(2-{[(4-methylpiperazin-1-yl)acetyl]amino}[1,3]thiazolo[5,4-b]pyridin-5-yl)oxy]phenyl}benzamide]",< 500,–
"Cc1ccc(NC(=O)c2cccc(C(F)(F)F)c2)cc1Oc1ccc2nc(NC(=O)CN3CCN(C)CC3)sc2n1 [Example C11, N-{4-methyl-3-[(2-{[(4-methylpiperazin-1-yl)acetyl]amino}[1,3]thiazolo[5,4-b]pyridin-5-yl)oxy]phenyl}-3-(trifluoromethyl)benzamide]",< 500,–
"Cc1ccc(NC(=O)c2cccc(C(F)(F)F)c2)cc1Oc1ccc2nc(NC(=O)CO)sc2n1 [Example C9, N-(3-{[2-(glycoloylamino)[1,3]thiazolo[5,4-b]pyridin-5-yl]oxy}-4-methylphenyl)-3-(trifluoromethyl)benzamide]",< 500,–
"Cc1ccc(NC(=O)c2cccc(C(F)(F)F)c2)cc1Oc1ccc2nc(NC(=O)C3CC3)sc2n1 [Example C8, N-[3-({2-[(cyclopropylcarbonyl)amino][1,3]thiazolo[5,4-b]pyridin-5-yl}oxy)-4-methylphenyl]-3-(trifluoromethyl)benzamide]",–,99
"Cc1ccc(NC(=O)c2cccc(C3(C#N)CC3)c2)cc1Oc1ccc2nc(NC(=O)CO)sc2n1 [Example C17, 3-(1-cyanocyclopropyl)-N-(3-{[2-(glycoloylamino)[1,3]thiazolo[5,4-b]pyridin-5-yl]oxy}-4-methylphenyl)benzamide]",–,99
"Cc1ccc(NC(=O)c2cccc(C3(C#N)CC3)c2)cc1Oc1ccc2nc(NC(=O)C3CC3)sc2n1 [Example C16, 3-(1-cyanocyclopropyl)-N-[3-({2-[(cyclopropylcarbonyl)amino][1,3]thiazolo[5,4-b]pyridin-5-yl}oxy)-4-methylphenyl]benzamide]",< 500,–

# Next, values leading:
IC50 [1] [nM],inhibition at 1 µM (BRAF (V600E)) [%],SMILES
< 500,–,"Cc1ccc(NC(=O)c2cccc(C(C)(C)C#N)c2)cc1Oc1ccc2nc(NC(=O)/C=C/c3ccc(Cl)cc3)sc2n1 [Example C99, N-{3-[(2-{[(2E)-3-(4-chlorophenyl)prop-2-enoyl]amino}[1,3]thiazolo[5,4-b]pyridin-5-yl)oxy]-4-methylphenyl}-3-(1-cyano-1-methylethyl)benzamide]"
< 500,–,"Cc1ccc(Oc2ccc3nc(NC(=O)CN4CCN(C)CC4)sc3n2)cc1NC(=O)c1cccc(C(C)(C)C#N)c1 [Example C35, 3-(1-cyano-1-methylethyl)-N-{2-methyl-5-[(2-{[(4-methylpiperazin-1-yl)acetyl]amino}[1,3]thiazolo[5,4-b]pyridin-5-yl)oxy]phenyl}benzamide]"
< 500,–,"CC(=O)Nc1nc2ccc(Oc3ccc(F)c(NC(=O)c4cccc(C5(C#N)CC5)c4Cl)c3)nc2s1 [Example C65, N-(5-{[2-(acetylamino)[1,3]thiazolo[5,4-b]pyridin-5-yl]oxy}-2-fluorophenyl)-2-chloro-3-(1-cyanocyclopropyl)benzamide]"
< 500,–,"CN(c1cccc(NC(=O)c2cccc(C(F)(F)F)c2)c1)c1ncc2nc(NC(=O)C3CC3)sc2n1 [Example D2, N-{3-[{2-[(cyclopropylcarbonyl)amino][1,3]thiazolo[5,4-d]pyrimidin-5-yl}(methyl)amino]phenyl}-3-(trifluoromethyl)benzamide]"
< 500,–,CN1CCN(CC(=O)Nc2nc3ccc(Oc4cc(NC(=O)c5cccc(C(C)(C)C#N)c5)ccc4Cl)nc3s2)CC1 [Example C51]
–,100,"O=C(Nc1cccc(Oc2ccc3nc(NC(=O)C4CC4)sc3n2)c1)c1cccc(C(F)(F)F)c1 [Example C20, N-[3-({2-[(cyclopropylcarbonyl)amino][1,3]thiazolo[5,4-b]pyridin-5-yl}oxy)phenyl]-3-(trifluoromethyl)benzamide]"
< 500,–,"N#CC1(c2cccc(C(=O)Nc3cccc(Oc4ccc5nc(NC(=O)C6CC6)sc5n4)c3)c2)CC1 [Example C26, 3-(1-cyanocyclopropyl)-N-[3-({2-[(cyclopropylcarbonyl)amino][1,3]thiazolo[5,4-b]pyridin-5-yl}oxy)phenyl]benzamide]"
< 500,–,"CN(c1cccc(NC(=O)c2cccc(C(F)(F)F)c2)c1)c1ccc2nc(NC(=O)C3CC3)sc2n1 [Example C40, N-{3-[{2-[(cyclopropylcarbonyl)amino][1,3]thiazolo[5,4-b]pyridin-5-yl}(methyl)amino]phenyl}-3-(trifluoromethyl)benzamide]"
–,100,"N#CC1(c2cccc(C(=O)Nc3cc(Oc4ccc5nc(NC(=O)C6CC6)sc5n4)c(F)cc3F)c2Cl)CC1 [Example C75, 2-chloro-3-(1-cyanocyclopropyl)-N-[5-({2-[(cyclopropylcarbonyl)amino][1,3]thiazolo[5,4-b]pyridin-5-yl}oxy)-2,4-difluorophenyl]benzamide]"
